pEC50: −log10 of the molar value. Values after ≈ are worked out from the molar mass of the structure shown. Where only a bound is given, the exact number is not on record here.

Common to all, as to type: cell-based
In test [1] the test system is Staphylococcus aureus, MRSA (ATCC 33591). The test can be described thus: Antibacterial MIC assay (microbroth dilution, CLSI). The following applies: 35° C., 16-20 hours; for MIC: Staphylococcus aureus. The essentials: (§1)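 Microbroth dilution per CLSI M07-A10/M100-S25 in cation-adjusted Mueller-Hinton broth, with 3% lysed horse blood added for S. pneumoniae. Inoculum from a 0.5 McFarland direct colony suspension, diluted to 5×10^5 CFU/mL in the well. Compounds were 2-fold serially diluted; MIC read against a growth control.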

Test [2] deals with Streptococcus pneumoniae (ATCC 49619). The test is described as above. The following applies: 35° C., 16-20 hours; for MIC Streptococcus pneumoniae (ATCC 49619): 3% lysed horse blood; for MIC: Streptococcus pneumoniae, ATCC49619, 3% lysed horse blood. Summed up:
as §1

For test [3], the system named is Wolbachia pipientis in C6/36 cell line. The test can be described thus: Anti-Wolbachia high-content assay. The following applies: C6/36 (wAlbB) cells, 7 days at 26° C., 50% reduction of Wolbachia. The text has this: C6/36 cells (ECACC #89051705, derived from Aedes albopictus larvae) were infected with Wolbachia pipientis derived from the supernatant of cultured A. albopictus Aa23 cells to create a stably Wolbachia-infected cell line C6/36 (wAlbB). This cell line was subpassaged 6-8 days prior to plating out at a density of 2000 viable cells per well in a 384-well CellCarrier plate suspended in Liebovitz media supplemented with 20% fetal bovine serum, 2% tryptose phosphate broth and 1% non-essential amino acids. Compounds were dissolved and diluted in DMSO, and compound solution was added to each well to provide a final DMSO concentration <1% and a total volume of 100 μL per well. Following 7 days of sterile incubation at 26° C., staining media containing SYTO 11 DNA dye was added to each well. After 15 minutes, all media was removed from each well and fresh media (no stain) was added. Imaging of each well was accomplished using a Perkin Elmer Operetta high-content imaging system. Five fields per well were imaged using a confocal 60× objective with the Fluorescein filter (excitation filter: 460-490 nm; emission filter: 500-550 nm). Images were analyzed using the Perkin Elmer Harmony software to score each intact cell on the basis of texture complexity of the cytoplasm. Full details can be found in: […]. Biomol. Screening, 2015, 20, […]. Compound sample wells were analyzed and normalized (along with the positive controls) against the vehicle (untreated) control to give a percentage reduction of Wolbachia-infected cells. Using the cell number analysis, compounds with a host cell number amounting to less than 50% of the vehicle control were classified as toxic and retested at a reduced compound concentration. Dose-response curves were generated with percentage reduction of Wolbachia-infected cells versus compound concentration, using 5-10 compound serial dilutions. Data were analyzed and compound EC50 is determined using a 4 parameter logistic nonlinear regression model.

Broadly, the pEC50 is the EC50 on a negative log10 scale, so that one unit is a factor of ten. As for `CCCCNC(=O)CC[C@]1(C)C[C@@H](OC(=O)COc2ccc3c(c2F)B(O)OC3)[C@]2(C)[C@H](C)CC[C@]3(CCC(=O)[C@H]32)[C@@H](C)[C@@H]1O` [Compound 5, (3aR,4R,5R,7R,8S,9R,9aS,12R)-7-(3-(butylamino)-3-oxopropyl)-8-hydroxy-4,7,9,12-tetramethyl-3-oxodecahydro-4,9a-propanocyclopenta[8]annulen-5-yl2-((7-fluoro-1-hydroxy-1,3-dihydrobenzo[c][1,2]oxaborol-6-yl)oxy)acetate], the “MIC Staphylococcus aureus, MRSA (ATCC 33591)” value (“MIC Staphylococcus aureus” below) in test [1] is “B (0.5-2 is B)”. Moreover, the “MIC Streptococcus pneumoniae (ATCC 49619)” value (shortened to “MIC Streptococcus pneumoniae”) in test [2] is “B (0.5-2 is B)”. Also, the pEC50 in test [3] is 6.52.

As for `CNC[C@H](O)[C@]1(C)C[C@@H](OC(=O)COc2ccc3c(c2F)B(O)OC3)[C@]2(C)[C@H](C)CC[C@]3(CCC(=O)[C@H]32)[C@@H](C)[C@@H]1O` [Compound 28, (3aR,4R,5R,7R,8S,9R,9aS,12R)-8-hydroxy-7-((R)-1-hydroxy-2-(methylamino)ethyl)-4,7,9,12-tetramethyl-3-oxodecahydro-4,9a-propanocyclopenta[8]annulen-5-yl2-((7-fluoro-1-hydroxy-1,3-dihydrobenzo[c][1,2]oxaborol-6-yl)oxy)acetate], the “MIC Staphylococcus aureus” value in test [1] is “D (≥64 is D)”. In test [2], the “MIC Streptococcus pneumoniae” value is given as “D (≥64 is D)”. The pEC50 in test [3] was under 6.00.

As a reminder, the MIC is the smallest concentration in the dilution series that meets the test's criterion for growth inhibition. As to `C[C@@H]1CC[C@@]23CCC(=O)[C@H]2[C@]1(C)[C@H](OC(=O)COc1ccc2c(c1F)B(O)OC2)C[C@@](C)(/C=C/C(=O)O)[C@@H](O)C3` [Compound 13, (E)-3-((3aR,4R,5R,7S,8S,9aS,12R)-5-(2-((7-fluoro-1-hydroxy-1,3-dihydrobenzo[c][1,2]oxaborol-6-yl)oxy)acetoxy)-8-hydroxy-4,7,12-trimethyl-3-oxodecahydro-4,9a-propanocyclopenta[8]annulen-7-yl)acrylic acid], the figures for the MIC in test [1] and in test [2] were 4 to 32 µg/mL (≈ 7.16 to 57.3 µM) and over 64 µg/mL, respectively. This compound also had a pEC50 in test [3] (Wolbachia pipientis) of under 6.00.

With `CNC(=O)CC[C@]1(C)C[C@@H](OC(=O)COc2ccc3c(c2F)B(O)OC3)[C@]2(C)[C@H](C)CC[C@]3(CCC(=O)[C@H]32)[C@@H](C)[C@@H]1O` [Compound 3, (3aR,4R,5R,7R,8S,9R,9aS,12R)-8-hydroxy-4,7,9,12-tetramethyl-7-(3-(methylamino)-3-oxopropyl)-3-oxodecahydro-4,9a-propanocyclopenta[8]annulen-5-yl2-((7-fluoro-1-hydroxy-1,3-dihydrobenzo[c][1,2]oxaborol-6-yl)oxy)acetate], the “MIC Staphylococcus aureus” value in test [1] is on record as “B (0.5-2 is B)”. For the same compound, the “MIC Streptococcus pneumoniae” value in test [2] is given as “B (0.5-2 is B)”. In addition, the pEC50 in test [3] is under 6.00.

Regarding `COC(=O)/C=C/[C@]1(C)C[C@@H](OC(=O)COc2ccc3c(c2F)B(O)OC3)[C@]2(C)[C@H](C)CC[C@]3(CCC(=O)[C@H]32)[C@@H](C)[C@@H]1O` [Compound 12, methyl (E)-3-((3aR,4R,5R,7S,8S,9R,9aS,12R)-5-(2-((7-fluoro-1-hydroxy-1,3-dihydrobenzo[c][1,2]oxaborol-6-yl)oxy)acetoxy)-8-hydroxy-4,7,9,12-tetramethyl-3-oxodecahydro-4,9a-propanocyclopenta[8]annulen-7-yl)acrylate], the MIC in test [1] and in test [2] was under 0.25 µg/mL in each case. In addition, in test [3] (Wolbachia pipientis), the pEC50 was 7.09.

As to `C[C@@H]1CC[C@@]23CCC(=O)[C@H]2[C@]1(C)[C@H](OC(=O)COc1ccc2c(c1F)B(O)OC2)C[C@@](C)(CCC(=O)NC1CC1)[C@@H](O)[C@@H]3C` [Compound 6, (3aR,4R,5R,7R,8S,9R,9aS,12R)-7-(3-(cyclopropylamino)-3-oxopropyl)-8-hydroxy-4,7,9,12-tetramethyl-3-oxodecahydro-4,9a-propanocyclopenta[8]annulen-5-yl2-((7-fluoro-1-hydroxy-1,3-dihydrobenzo[c][1,2]oxaborol-6-yl)oxy)acetate], the “MIC Staphylococcus aureus” value in test [1] was “B (0.5-2 is B)”. Also, the “MIC Streptococcus pneumoniae” value in test [2] is “B (0.5-2 is B)”. In test [3], this compound had a pEC50 of 6.41.

Consider `CON=C[C@]1(C)C[C@@H](OC(=O)COc2ccc3c(c2F)B(O)OC3)[C@]2(C)[C@H](C)CC[C@]3(CCC(=O)[C@H]32)[C@@H](C)[C@@H]1O` [Compound 44, (3aR,4R,5R,7S,8S,9R,9aS,12R)-8-hydroxy-7-((methoxyimino)methyl)-4,7,9,12-tetramethyl-3-oxodecahydro-4,9a-propanocyclopenta[8]annulen-5-yl2-((7-fluoro-1-hydroxy-1,3-dihydrobenzo[c][1,2]oxaborol-6-yl)oxy)acetate], for which the “MIC Staphylococcus aureus” value in test [1] is recorded as “A (MIC of ≤0.25 is A)”. Also, in test [2], the “MIC Streptococcus pneumoniae” value was “C (4-32 is C)”.

As for `COC[C@]1(C)C[C@@H](OC(=O)COc2ccc3c(c2F)B(O)OC3)[C@]2(C)[C@H](C)CC[C@]3(CCC(=O)[C@H]32)[C@@H](C)[C@@H]1O` [Compound 24, (3aR,4R,5R,7S,8S,9R,9aS,12R)-8-hydroxy-7-(methoxymethyl)-4,7,9,12-tetramethyl-3-oxodecahydro-4,9a-propanocyclopenta[8]annulen-5-yl2-((7-fluoro-1-hydroxy-1,3-dihydrobenzo[c][1,2]oxaborol-6-yl)oxy)acetate], in test [1], the “MIC Staphylococcus aureus” value is “A (MIC of ≤0.25 is A)”. Moreover, the “MIC Streptococcus pneumoniae” value in test [2] is on record as “C (4-32 is C)”.

`C=CC[C@]1(C)C[C@@H](OC(=O)COc2ccc3c(c2F)B(O)OC3)[C@]2(C)[C@H](C)CC[C@]3(CCC(=O)[C@H]32)[C@@H](C)[C@@H]1O` [Compound 21, (3aR,4R,5R,7R,8S,9R,9aS,12R)-7-allyl-8-hydroxy-4,7,9,12-tetramethyl-3-oxodecahydro-4,9a-propanocyclopenta[8]annulen-5-yl2-((7-fluoro-1-hydroxy-1,3-dihydrobenzo[c][1,2]oxaborol-6-yl)oxy)acetate]: the “MIC Staphylococcus aureus” value in test [1] is given as “A (MIC of ≤0.25 is A)”. Further, the “MIC Streptococcus pneumoniae” value in test [2] is “B (0.5-2 is B)”.

As to `CCCCNC[C@]1(C)C[C@@H](OC(=O)COc2ccc3c(c2F)B(O)OC3)[C@]2(C)[C@H](C)CC[C@]3(CCC(=O)[C@H]32)[C@@H](C)[C@@H]1O` [Compound 36, (3aR,4R,5R,7S,8S,9R,9aS,12R)-7-((butylamino)methyl)-8-hydroxy-4,7,9,12-tetramethyl-3-oxodecahydro-4,9a-propanocyclopenta[8]annulen-5-yl2-((7-fluoro-1-hydroxy-1,3-dihydrobenzo[c][1,2]oxaborol-6-yl)oxy)acetate], in test [1], the “MIC Staphylococcus aureus” value is “B (0.5-2 is B)”. In test [2], the “MIC Streptococcus pneumoniae” value is given as “C (4-32 is C)”.

Consider `CCNC[C@]1(C)C[C@@H](OC(=O)COc2ccc3c(c2F)B(O)OC3)[C@]2(C)[C@H](C)CC[C@]3(CCC(=O)[C@H]32)[C@@H](C)[C@@H]1O` [Compound 34, (3aR,4R,5R,7S,8S,9R,9aS,12R)-7-((ethylamino)methyl)-8-hydroxy-4,7,9,12-tetramethyl-3-oxodecahydro-4,9a-propanocyclopenta[8]annulen-5-yl2-((7-fluoro-1-hydroxy-1,3-dihydrobenzo[c][1,2]oxaborol-6-yl)oxy)acetate], for which the “MIC Staphylococcus aureus” value in test [1] is “C (4-32 is C)”. The “MIC Streptococcus pneumoniae” value in test [2] is given as “C (4-32 is C)”.

The values are drawn from patent US20220273683A1, “BORON-CONTAINING SMALL MOLECULES” (Bill & Melinda Gates Foundation, priority 2016, published 2022).
